Data taken from patent US8461348B2, “Heterocyclic derivative and use thereof” (Takeda Pharmaceutical Company Limited, priority 2008, dated 2013).

How the values were obtained:
Purified sGC = biological target: T1, Purified sGC (Homo sapiens, UniProt Q02153); experiment: Measurement of sGC activation in vitro (cGMP production by purified sGC); assay type: biochemical; conditions: 20 min; test compound diluted to 30 μM, 10 μL/well plus equal volumes of sGC and GTP; 20 min at room temperature; cGMP without compound (1% DMSO) = 100%; read-out: cGMP amount (%) in experiment system
T1 sequence (Q02153 1-619): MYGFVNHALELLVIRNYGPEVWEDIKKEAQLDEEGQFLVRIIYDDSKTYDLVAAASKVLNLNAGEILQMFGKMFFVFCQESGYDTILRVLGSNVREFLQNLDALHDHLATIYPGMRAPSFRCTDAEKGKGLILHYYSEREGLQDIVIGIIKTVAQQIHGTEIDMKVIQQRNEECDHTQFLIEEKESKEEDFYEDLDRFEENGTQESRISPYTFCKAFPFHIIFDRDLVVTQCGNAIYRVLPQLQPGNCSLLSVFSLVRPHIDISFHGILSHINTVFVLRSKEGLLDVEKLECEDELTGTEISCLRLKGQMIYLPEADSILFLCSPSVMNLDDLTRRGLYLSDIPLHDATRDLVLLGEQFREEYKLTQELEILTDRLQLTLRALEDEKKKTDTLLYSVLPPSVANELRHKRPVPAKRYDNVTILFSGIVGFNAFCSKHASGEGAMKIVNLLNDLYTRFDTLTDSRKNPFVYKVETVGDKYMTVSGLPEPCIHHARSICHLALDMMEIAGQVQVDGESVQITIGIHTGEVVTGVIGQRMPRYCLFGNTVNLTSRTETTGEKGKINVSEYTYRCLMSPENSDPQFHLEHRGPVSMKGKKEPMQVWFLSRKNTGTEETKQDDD
T1 sequence (Q02108 1-690 partner): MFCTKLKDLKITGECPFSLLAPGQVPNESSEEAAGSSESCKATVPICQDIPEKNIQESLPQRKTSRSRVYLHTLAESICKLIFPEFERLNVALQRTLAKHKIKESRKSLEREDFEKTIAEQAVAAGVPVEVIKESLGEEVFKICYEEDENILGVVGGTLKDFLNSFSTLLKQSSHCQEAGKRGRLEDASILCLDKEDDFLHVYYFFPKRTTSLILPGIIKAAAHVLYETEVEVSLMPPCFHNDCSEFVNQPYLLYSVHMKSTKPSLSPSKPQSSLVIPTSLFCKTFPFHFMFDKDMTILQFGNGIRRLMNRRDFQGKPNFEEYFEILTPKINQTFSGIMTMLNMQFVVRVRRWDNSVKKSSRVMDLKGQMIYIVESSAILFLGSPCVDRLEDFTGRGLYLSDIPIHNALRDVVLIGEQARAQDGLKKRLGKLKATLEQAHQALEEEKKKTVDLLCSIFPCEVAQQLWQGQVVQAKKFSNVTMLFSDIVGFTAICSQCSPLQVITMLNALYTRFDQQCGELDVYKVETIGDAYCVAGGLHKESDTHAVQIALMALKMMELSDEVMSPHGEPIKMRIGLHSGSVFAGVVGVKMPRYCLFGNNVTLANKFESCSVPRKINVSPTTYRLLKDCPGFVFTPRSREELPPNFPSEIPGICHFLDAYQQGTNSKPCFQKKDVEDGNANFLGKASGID
Experimental: To evaluate sGC activation of each compound, the following in vitro tests were performed.
A test compound was diluted with a reaction buffer (50 mM HEPES, 5 mM MgCl2, 2 mM DTT, 0.5 mM IBMX (isobutylmethylxanthine), 0.01% BSA) to 30 μM (3% DMSO), and dispensed to a 384 well plate (manufactured by REMP) at 10 μL/well. Purified sGC was diluted with the reaction buffer to 240 ng/mL and added to the plate at 10 μL/well. Then, 120 μM GTP prepared with the reaction buffer was added to the reaction plate at 10 μL/well to initiate an enzyme reaction. After stirring at room temperature for 20 min to allow reaction, 125 mM Na2CO3 was added at 15 μL/well to quench the reaction. Thereafter, 125 mM Zn Acetate (zinc acetate) was added at 15 μL/well to allow precipitation of unreacted GTP. Then, the amount of the resulting cGMP contained in the supernatant was quantified using a CatchPoint cGMP assay kit (molecular devices). The method followed the protocol attached to the assay kit. For detection, Super Signal ELISA Femto (Thermo) was used, and the amount of luminescence was measured with ARVO (Perkinelmer). The sGC activity with addition of the compound was calculated using the amount of cGMP produced without addition of the compound (in the presence of 1% DMSO) as 100%.

male SHR = experiment: Measurement of hypotensive action in vivo in SHR; parameters: species or system rat; conditions: single oral administration, 30 mg/kg, 5 hr after administration
Experimental: Animal used was male SHR (32- to 40-week-old, SHR/Izm, Japan SLC, Inc.). Two days before drug administration, a cannula (SP10+SP45, Natsume Seisakusho Co., Ltd.) filled with heparin physiological saline (200 U/mL, Ajinomoto Pharma Co., Ltd.) was inserted from the femoral artery under anesthesia with pentobarbital Na (50 mg/kg, i.p., Kyoritsu Seiyaku Corporation) and dwelled. The other end of the cannula was subcutaneously passed and exposed on the back of the neck where it was fixed. After a recovery period, the artery dwelling cannula was connected to a pressure transducer (DTX Plus DT-XXAD, Japan Becton Dickinson) and output on a pen recorder (linear recorder WR3320-4µL, Graphtec Corporation) via a polygraph (AP-641G, Nihon Kohden Co.), and the blood pressure waveform was recorded. The heart rate was calculated from the blood pressure waveform. After stable blood pressure was obtained, a solvent or a drug was orally administered once, and average blood pressure and average heart rate were measured over time. The blood pressure was measured under fasting, and the rats were reared under free ingestion of feed and water except the blood pressure measurement day. The drug was suspended in 0.5% methylcellulose aqueous solution. The administration dose was 2 mL/kg.

- activity at 10 µM (Purified sGC): > 1000%
Structure (SMILES): O=C(O)c1ccc(Cc2nc(-c3cccc(C(F)(F)F)c3)cs2)cc1 [Example 178, 4-({4-[3-(trifluoromethyl)phenyl]-1,3-thiazol-2-yl}methyl)benzoic acid]
- hypotension after 5 hr from the administration (male SHR): 15.8 mmHg
